For eight compounds, GI50 and TGI results are on record in PubChem BioAssay (NCI).

Assay in all cases: NCI-60 cell line screen, 48 h
The test system of test [1] is HCT-15 colon.
Test [2] concerns MOLT-4 leukemia.
The subject of test [3] is SR leukemia.
The test system of test [4] is TK-10 renal.
Test [5] concerns NCI-H23 lung.
For test [6], the system named is SNB-75 CNS.
Test [7] deals with CCRF-CEM leukemia.
Test [8] deals with NCI-H522 lung.
Test [9] relates to MDA-MB-231 breast.
Test [10] deals with NCI-H226 lung.

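Five concentrations, 48 hours, 96-well plates. Here, GI50 denotes the concentration required for 50% inhibition of growth. TGI denotes the concentration required for complete inhibition of growth.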

For `COc1cc(NS(C)(=O)=O)ccc1Nc1c2ccc(Cl)cc2nc2c(OC)cccc12`, the GI50 in [1] was 0.226 µM; in [3] it was less than 0.0109 µM; in test [4], 0.137 µM; in test [5], 0.125 µM; in test [6], 0.0966 µM; in [7], 0.0309 µM. For the same compound, the GI50 in test [8] was 0.222 µM; in [9], 3 µM; in test [10], 0.0806 µM. Besides, the TGI in [2] was 2.15 µM; in [3], 10.2 µM; in [4] it was 1.83 µM; in test [5], 5.36 µM; in test [6] it was 1.59 µM; in [7], more than 91.7 µM. Also, the results for the TGI in test [8], in test [9] and in test [10] were 2.12 µM, 15.6 µM and 0.83 µM, respectively.

Turning to `COc1cc(C(=O)c2ccc3c(c2)OCO3)cc(OC)c1OC`, the GI50 is 0.928 µM in test [1]; 2.72 µM in test [2]; 0.348 µM in test [3]; 4.44 µM in test [4]; 4.93 µM in test [5]; 1.39 µM in [6]. Moreover, the GI50 in test [7] is 2.46 µM; in test [8], 1.4 µM; in test [9], 8.65 µM; in test [10], 8.76 µM. Further, the TGI in test [1] is more than 100 µM; in test [2], more than 75.1 µM; in test [3], more than 87.7 µM; in test [4], more than 100 µM; in test [5], more than 100 µM; in test [6] it was 5.03 µM. Also, the TGI in test [7] is more than 75.3 µM; in test [8] it was 8.84 µM; in test [9] it was more than 100 µM; in [10] it was more than 100 µM.

Take `Cc1cc2c(cc1Cl)SC1=CC(=O)N(c3ccccc3)C1=NS2(=O)=O`: the GI50 in [1] is more than 100 µM; in test [2] it was 31.7 µM; in [4] it was 21.6 µM; in test [5], more than 100 µM; in test [7] it was 24.8 µM; in [8], 67.1 µM. Besides, the GI50 in test [9] is 43.7 µM; in [10] it was 66.7 µM. For the same compound, the TGI in test [1] was more than 100 µM; in test [2], more than 100 µM; in test [4], 60.3 µM; in test [5] it was more than 100 µM; in test [7], 95.5 µM; in test [8], more than 100 µM. The TGI in test [9] and in test [10] was more than 100 µM each time.

For `Cn1nccc1Nc1nccc(-c2cc3c(s2)C(C)(C)N(CCN2CCOCC2)C3=O)n1`, the GI50 was 16.9 µM in [1]; 25.7 µM in test [2]; 23 µM in [3]; 1.31 µM in test [4]; 0.858 µM in test [5]; 15.9 µM in test [6]. In addition, the GI50 was 23.4 µM in test [7], 14.9 µM in test [8], 2.8 µM in [9] and 20.2 µM in [10]. The TGI in [1], in test [2], in test [3], in test [4], in test [5] and in test [6] was more than 100 µM throughout. Besides, the TGI in [7], in test [8], in test [9] and in test [10] was more than 100 µM each time.

In the case of `C/C=C(\C)C(=O)N[C@H]1CC[C@]2(C)C3CC[C@@]4(C)C(CC[C@@H]4C(C)N(C)C)C3CCC2[C@H]1OC(C)=O` (stereo partly specified), the GI50 in [1] is 0.762 µM; in test [2] it was 1.58 µM; in test [4], 2.16 µM; in [5], 1.91 µM; in [6], 1.65 µM; in [7], 1.97 µM. The GI50 in [8] was 2.14 µM; in [9], 1.91 µM; in test [10] it was 2.38 µM. The TGI in test [1] came to 2.4 µM; in [2], 3.91 µM; in test [4], 4.59 µM; in test [5] it was 5.01 µM; in test [6], 3.59 µM; in [7], 6.19 µM. In addition, the TGI was determined as 5.24 µM in test [8], 4.02 µM in test [9] and 7.53 µM in test [10].

Turning to `COc1ccc(-c2[nH]c3ccccc3c2C=C(C#N)C#N)cc1`, the GI50 in test [1] is 0.587 µM; in test [2], 0.578 µM; in [4] it was 0.917 µM; in [5], 0.6 µM; in test [6], 0.412 µM; in test [7] it was 0.352 µM. Also, the GI50 in test [8] was 0.798 µM; in test [9], 0.543 µM; in [10], 0.873 µM. The TGI in test [1] was more than 100 µM; in test [2], 5.53 µM; in test [4] it was more than 71.7 µM; in test [5] it was more than 42.8 µM; in [6], 20.5 µM; in test [7], 10.3 µM. In addition, the values for the TGI in test [8], in [9] and in [10] were 10.3 µM, more than 22.6 µM and more than 20.1 µM, respectively.

For the compound `C=C1C(=O)O[C@H]2[C@H]1CC/C(COC(=O)CCCCC(=O)OC/C1=C/CC[C@@]3(C)O[C@H]3[C@H]3OC(=O)C(=C)[C@@H]3CC1)=C\CC[C@@]1(C)O[C@@H]21`, the GI50 in [1] is 1.73 µM; in [3] it was 0.584 µM; in [5], 2.76 µM; in test [6] it was 20 µM; in [7], 0.429 µM; in test [8] it was 1.76 µM. Also, the GI50 in [9] is 1.66 µM; in test [10], 1.9 µM. Further, the TGI is 4.2 µM in test [1]; more than 100 µM in [3]; 14 µM in test [5]; more than 100 µM in test [6]; 4.25 µM in test [7]; 3.57 µM in [8]. The figures for the TGI in test [9] and in [10] were 3.57 µM and 4.36 µM, respectively.

On to `CC(=O)N1N=C2/C(=C/c3ccccc3)CC(C)CC2C1c1ccccc1` (stereo unspecified), for which the GI50 in [1] is 13.7 µM; in test [2] it was 8.72 µM; in test [3], 10.7 µM; in [4], 19.7 µM; in test [5], 14.4 µM; in test [6], 15.6 µM. Further, the GI50 is 15.5 µM in test [7], 13.8 µM in test [8], 14.2 µM in [9] and 15.3 µM in test [10]. Besides, the TGI came out at 28.9 µM in [1]; 28.1 µM in test [2]; 33 µM in test [3]; 44.9 µM in test [4]; 28 µM in [5]; 30.9 µM in [6]. The TGI in test [7] came out at 53.9 µM; in test [8], 31.7 µM; in test [9], 31.8 µM; in [10] it was 34 µM.
